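Five compound concentrations were applied to cells in 96-well plates for 48 hours; endpoints were derived by simple linear interpolation of the resulting dose-response curve. GI50: concentration for 50% inhibition of growth. Definition used: TGI = concentration required for complete inhibition of growth.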
Assays:
Experiment in all cases: DTP human tumour cell line panel, 48 h
OVCAR-5 ovarian = tested on: OVCAR-5 ovarian
K-562 leukemia = tested on: K-562 leukemia
SK-MEL-5 melanoma = tested on: SK-MEL-5 melanoma
RPMI-8226 leukemia = tested on: RPMI-8226 leukemia
A498 renal = tested on: A498 renal
HCC-2998 colon = tested on: HCC-2998 colon
NCI-H522 lung = tested on: NCI-H522 lung
PC-3 prostate = tested on: PC-3 prostate
BT-549 breast = tested on: BT-549 breast
UO-31 renal = tested on: UO-31 renal
NCI-H226 lung = tested on: NCI-H226 lung
MDA-MB-435 = tested on: MDA-MB-435
HT29 colon = tested on: HT29 colon
IGROV1 ovarian = tested on: IGROV1 ovarian
SNB-19 CNS = tested on: SNB-19 CNS
SK-MEL-2 melanoma = tested on: SK-MEL-2 melanoma
M14 melanoma = tested on: M14 melanoma
HOP-92 NSCLC = tested on: HOP-92 NSCLC
NCI-H23 lung = tested on: NCI-H23 lung
SW-620 colon = tested on: SW-620 colon
CAKI-1 renal = tested on: CAKI-1 renal
ACHN renal = tested on: ACHN renal
HCT-15 colon = tested on: HCT-15 colon
T-47D breast = tested on: T-47D breast
OVCAR-4 ovarian = tested on: OVCAR-4 ovarian
MDA-MB-468 breast = tested on: MDA-MB-468 breast
TK-10 renal = tested on: TK-10 renal
U251 CNS = tested on: U251 CNS
UACC-62 melanoma = tested on: UACC-62 melanoma
SK-MEL-28 melanoma = tested on: SK-MEL-28 melanoma
LOX IMVI melanoma = tested on: LOX IMVI melanoma
UACC-257 melanoma = tested on: UACC-257 melanoma
KM12 colon = tested on: KM12 colon
A549 NSCLC = tested on: A549 NSCLC
SK-OV-3 ovarian = tested on: SK-OV-3 ovarian
MALME-3M melanoma = tested on: MALME-3M melanoma
MDA-MB-231 breast = tested on: MDA-MB-231 breast
DU-145 prostate = tested on: DU-145 prostate
SNB-75 CNS = tested on: SNB-75 CNS
HL-60(TB) leukemia = tested on: HL-60(TB) leukemia
OVCAR-3 ovarian = tested on: OVCAR-3 ovarian
786-0 renal = tested on: 786-0 renal
MCF7 breast = tested on: MCF7 breast
SF-539 CNS = tested on: SF-539 CNS
SF-268 CNS = tested on: SF-268 CNS
COLO 205 colon = tested on: COLO 205 colon
HOP-62 NSCLC = tested on: HOP-62 NSCLC

## CC(=O)Oc1ccccc1C(=O)[Se]CC(=O)Nc1cccc(C(F)(F)F)c1
OVCAR-5 ovarian
  GI50: 2.15 µM
  TGI: 5.12 µM
K-562 leukemia
  GI50: 5.59 µM
  TGI: 55.3 µM
SK-MEL-5 melanoma
  GI50: 1.29 µM
  TGI: 2.69 µM
RPMI-8226 leukemia
  GI50: 5.44 µM
  TGI: 85 µM
A498 renal
  GI50: 1.45 µM
  TGI: 2.95 µM
HCC-2998 colon
  GI50: 11.9 µM
  TGI: 25.7 µM
NCI-H522 lung
  GI50: 1.83 µM
  TGI: 3.81 µM
PC-3 prostate
  GI50: 5.23 µM
  TGI: 21.9 µM
BT-549 breast
  GI50: 2.13 µM
  TGI: 3.61 µM
UO-31 renal
  GI50: 1.23 µM
  TGI: 2.56 µM
NCI-H226 lung
  GI50: 3.11 µM
  TGI: 5.55 µM
MDA-MB-435
  GI50: 3.12 µM
  TGI: 5.41 µM
HT29 colon
  GI50: 1.88 µM
  TGI: 5.16 µM
IGROV1 ovarian
  GI50: 2.05 µM
  TGI: 4 µM
SNB-19 CNS
  GI50: 1.86 µM
  TGI: 3.8 µM
SK-MEL-2 melanoma
  GI50: 2.84 µM
  TGI: 10.9 µM
M14 melanoma
  GI50: 1.95 µM
  TGI: 3.83 µM
HOP-92 NSCLC
  GI50: 0.763 µM
  TGI: 2.15 µM
NCI-H23 lung
  GI50: 1.5 µM
  TGI: 3.87 µM
SW-620 colon
  GI50: 1.46 µM
  TGI: 3.11 µM
CAKI-1 renal
  GI50: 0.198 µM
  TGI: 0.361 µM
ACHN renal
  GI50: 2.39 µM
  TGI: 6.36 µM
HCT-15 colon
  GI50: 1.42 µM
  TGI: 2.85 µM
T-47D breast
  GI50: 7.09 µM
  TGI: 49.5 µM
OVCAR-4 ovarian
  GI50: 5.19 µM
  TGI: 60.9 µM
MDA-MB-468 breast
  GI50: 1.75 µM
  TGI: 3.35 µM
TK-10 renal
  GI50: 2.07 µM
  TGI: 4.71 µM
U251 CNS
  GI50: 2.12 µM
  TGI: 5.3 µM
UACC-62 melanoma
  GI50: 1.38 µM
  TGI: 3.07 µM
SK-MEL-28 melanoma
  GI50: 2.06 µM
  TGI: 4.35 µM
LOX IMVI melanoma
  GI50: 1.94 µM
  TGI: 3.65 µM
UACC-257 melanoma
  GI50: 3.21 µM
  TGI: 9.82 µM
KM12 colon
  GI50: 5.04 µM
  TGI: 19.5 µM
A549 NSCLC
  GI50: 1.66 µM
  TGI: 3.8 µM
SK-OV-3 ovarian
  GI50: 4.22 µM
  TGI: 20.3 µM
MALME-3M melanoma
  GI50: 1.57 µM
  TGI: 3.04 µM
MDA-MB-231 breast
  GI50: 2.31 µM
  TGI: 4.18 µM
DU-145 prostate
  GI50: 2.09 µM
  TGI: 4.61 µM
SNB-75 CNS
  GI50: 2.47 µM
  TGI: 5.94 µM
HL-60(TB) leukemia
  GI50: 1.78 µM
  TGI: 5.27 µM
OVCAR-3 ovarian
  GI50: 1.71 µM
  TGI: 4.38 µM
786-0 renal
  GI50: 2.21 µM
  TGI: 4.62 µM
MCF7 breast
  GI50: 2.75 µM
  TGI: 12.4 µM
SF-539 CNS
  GI50: 1.87 µM
  TGI: 3.34 µM
SF-268 CNS
  GI50: 2.69 µM
  TGI: 5.87 µM
COLO 205 colon
  GI50: 4.35 µM
  TGI: 17 µM
HOP-62 NSCLC
  GI50: 2.91 µM
  TGI: 5.44 µM
